From patent publication US11109592B2, “Selective weed control methods” (Corteva Agriscience LLC, priority 2013, dated 2021)
Where two headings read alike, the source gives them in different places.

What was measured:
[1] = tested on: Juncea canola (Brassica juncea); details: for injury to Juncea canola, on average did not exceed: five field trials; for Percent (%) Crop Injury (Mean Value): B12-B14 crop stage
[2] = tested on: broadleaf weeds including cleavers (Galium aparine), chickweed (Stellaria media), pigweed (Amaranthus spp.), lamb's-quarters (Chenopodium album) and others; assay: Efficacy on commercially relevant broadleaf weeds; format: in vivo; details: application rate of 2.5 to 10 g ae/ha
[3] = tested on: sunflowers, sorghum, yellow mustard, Brassicaceae-family crops, and sugar beets; assay: Overall crop safety, post-emergence application; format: in vivo; details: post-emergence application rates of ≤10 g ae/ha
[4] = tested on: spring turnip (Brassica rapa); details: for injury to turnip, on average did not exceed: three field trials; for Percent (%) Crop Injury (Mean Value): B12-B16 crop stage
[5] = tested on: spring rutabaga (Brassica napus); details: for injury to rutabaga, on average did not exceed: three field trials; for Percent (%) Crop Injury (Mean Value): B12-B14 crop stage
[6] = tested on: certain members of the Amaranthaceae, Asteraceae, Lamiaceae, Rubiaceae, Papaveraceae and Brassicaceae families; assay: Herbicidal activity (LD90) on plant families; format: in vivo; details: grams acid equivalent per hectare
[7] = tested on: common lambsquarters (Chenopodium album L.); assay: Field trial in sugar beet, visual control of common lambsquarters; format: in vivo; details: 36 days following last application
Text: (§1) As used herein, selective post-emergent control of undesirable vegetation means preventing, reducing, killing, or otherwise adversely modifying the development of the undesirable vegetation in the presence of crop plants with limited adverse effect on the crop plants. For example, a broadleaf weed control of 80% (rated visually) with crop injury of less than or equal to 20%, rated visually, would constitute selective control. In some embodiments the adverse effect on crop plants is limited to less than 10% visually rated crop injury. […] Visual weed control is a composite rating accounting for reductions in pest plant biomass and/or stand reduction.
(§2) Treatments 4 and 5 were split applications at the two indicated growth stages.

[8] = tested on: spring kale (Brassica oleracea); assay: Field trial, crop injury to spring kale, post-emergence; format: in vivo; details: B12-B16 crop stage
Text: Data from the trials on spring kale (Brassica oleracea) are summarized Table 4.

[9] = tested on: spring sorghum (Sorghum vulgare); assay: Field trial, crop injury to spring sorghum, post-emergence; details: B17-B22 crop stage
[10] = tested on: yellow mustard (Sinapis alba); assay: Field trial, crop injury to and yield of yellow mustard, post-emergence; details: B14-B15 crop stage
[11] = tested on: spring sunflower (Helianthus annuus); assay: Field trial, crop injury to spring sunflower, post-emergence; details: B12-B14 crop stage, Australia
[12] = tested on: wild buckwheat (Polygonum convolvulus L.); assay: Field trial in sugar beet, visual control of wild buckwheat; format: in vivo; details: 36 days following last application
Text: as §1, §2

[13] = tested on: Winfred forage brassica (Brassica rapa × oleracea); assay: Field trial, crop injury to Winfred forage brassica, post-emergence; format: in vivo; details: B14-B16 crop stage, Australia
[14] = treatment 1: 1.0 g ae/ha at BEAVA stage B12-B16
[15] = treatment 2: 2.0 g ae/ha at BEAVA stage B12-B16
[16] = treatment 3: 3.0 g ae/ha at BEAVA stage B12-B16
[17] = treatment 4: split application 0.5 g ae/ha at B10-B12 and 0.5 g ae/ha at B12-B16
[18] = treatment 5: split application 1.0 g ae/ha at B10-B12 and 1.0 g ae/ha at B12-B16
[19] = rate 2.5 (g ae/ha), 1 week after application
[20] = rate 2.5, 3-5 weeks after application
[21] = rate 2.5, 6-10 weeks after application
[22] = rate 5, 1 week after application
[23] = rate 5, 3-5 weeks after application
[24] = rate 5, 6-10 weeks after application
[25] = rate 10, 1 week after application
[26] = rate 10, 3-5 weeks after application
[27] = rate 10, 6-10 weeks after application
[28] = rate 20, 1 week after application
[29] = rate 20, 3-5 weeks after application
[30] = rate 20, 6-10 weeks after application
[31] = rate 2.5 (g ae/ha), 3-5 weeks after application

For `COc1c(Cl)ccc(-c2cc(N)c(Cl)c(C(=O)O)n2)c1F` [Compound I, 4-amino-3-chloro-6-(4-chloro-2-fluoro-3-methoxyphenyl)pyridine-2-carboxylic acid], the “injury to Juncea canola, on average did not exceed” value ([1]; 2.5 g ae/ha) was at most 7.5%, the “injury to Juncea canola, on average did not exceed” value ([1]; 5 g ae/ha) was at most 11.3% and the “injury to Juncea canola, on average did not exceed” value ([1]; 10 g ae/ha) was at most 5.5%. The “efficacy on commercially relevant broadleaf weeds” value [2] was “highly efficacious”, the crop injury [3] was “little to no crop injury” and the “injury to turnip, on average did not exceed” value ([4]; 2.5 g ae/ha) was at most 2.5%. The “injury to turnip, on average did not exceed” value ([4]; 5 g ae/ha) was at most 5%, the “injury to turnip, on average did not exceed” value ([4]; 10 g ae/ha) was at most 7.5% and the “injury to rutabaga, on average did not exceed” value ([5]; 2.5 g ae/ha) was at most 6.3%. The “injury to rutabaga, on average did not exceed” value ([5]; 5 g ae/ha) was at most 10%, the “injury to rutabaga, on average did not exceed” value ([5]; 10 g ae/ha) was at most 15% and the LD90 [6] was at most 10 g ae/ha.
For `COC(=O)c1nc(-c2ccc(Cl)c(OC)c2F)cc(N)c1Cl` [4-Amino-3-chloro-6-(4-chloro-2-fluoro-3-methoxyphenyl)pyridine-2-carboxylic acid methyl ester], the “Percent (%) Visual Control CHEAL” value [7, 14] was 35%, the “Percent (%) Visual Control CHEAL” value [7, 15] was 98% and the “Percent (%) Visual Control CHEAL” value [7, 16] was 95.8%. For the same compound, the “Percent (%) Visual Control CHEAL” value [7, 17] was 30%, the “Percent (%) Visual Control CHEAL” value [7, 18] was 96.8% and the “Percent (%) Crop Injury (Mean Value)” value [1, 19] was 2.5%. The “Percent (%) Crop Injury (Mean Value)” value [1, 20] was 7.5%, the “Percent (%) Crop Injury (Mean Value)” value [1, 21] was 5% and the “Percent (%) Crop Injury (Mean Value)” value [1, 22] was 3.8%. For the same compound, the “Percent (%) Crop Injury (Mean Value)” value [1, 23] was 10.5%, the “Percent (%) Crop Injury (Mean Value)” value [1, 24] was 11.3% and the “Percent (%) Crop Injury (Mean Value)” value [1, 25] was 3.8%. For the same compound, the “Percent (%) Crop Injury (Mean Value)” value [1, 26] was 5.5%, the “Percent (%) Crop Injury (Mean Value)” value [1, 27] was 3.8% and the “Percent (%) Crop Injury (Mean Value)” value [1, 28] was 30%. For the same compound, the “Percent (%) Crop Injury (Mean Value)” value [1, 29] was 13.8%, the “Percent (%) Crop Injury (Mean Value)” value [1, 30] was 0% and the “Percent (%) Crop Injury (Mean Value)” value [8, 19] was 2.5%. The “Percent (%) Crop Injury (Mean Value)” value [8, 20] was 0%, the “Percent (%) Crop Injury (Mean Value)” value [8, 22] was 1.3% and the “Percent (%) Crop Injury (Mean Value)” value [8, 23] was 1.3%. For the same compound, the “Percent (%) Crop Injury (Mean Value)” value [8, 25] was 2.5%, the “Percent (%) Crop Injury (Mean Value)” value [8, 26] was 3.8% and the “Percent (%) Crop Injury (Mean Value)” value [8, 28] was 15%. For the same compound, the “Percent (%) Crop Injury (Mean Value)” value [9, 31] was 8.3%, the “Percent (%) Crop Injury (Mean Value)” value [9, 21] was 13.3% and the “Percent (%) Crop Injury (Mean Value)” value [9, 23] was 11.7%. For the same compound, the “Percent (%) Crop Injury (Mean Value)” value [9, 24] was 18.3%, the “Percent (%) Crop Injury (Mean Value)” value [9, 26] was 18.3% and the “Percent (%) Crop Injury (Mean Value)” value [9, 27] was 15%. The “Percent (%) Crop Injury (Mean Value)” value [9, 29] was 13.3%, the “Percent (%) Crop Injury (Mean Value)” value [9, 30] was 15% and the “Percent (%) Crop Injury (Mean Value of Four Observations)” value [10, 19] was 8.5%. The “Percent (%) Crop Injury (Mean Value of Four Observations)” value ([10]; rate 2.5, 2 weeks after application) was 4.8%, the “Percent (%) Crop Injury (Mean Value of Four Observations)” value [10, 20] was 4.5% and the “Percent (%) Crop Injury (Mean Value of Four Observations)” value [10, 22] was 14.3%. The “Percent (%) Crop Injury (Mean Value of Four Observations)” value ([10]; rate 5, 2 weeks after application) was 10%, the “Percent (%) Crop Injury (Mean Value of Four Observations)” value [10, 23] was 7.5% and the “Percent (%) Crop Injury (Mean Value of Four Observations)” value [10, 25] was 21.3%. For the same compound, the “Percent (%) Crop Injury (Mean Value of Four Observations)” value ([10]; rate 10, 2 weeks after application) was 25%, the “Percent (%) Crop Injury (Mean Value of Four Observations)” value [10, 26] was 16.3% and the “Percent (%) Crop Injury (Mean Value of Four Observations)” value [10, 28] was 23.8%. For the same compound, the “Percent (%) Crop Injury (Mean Value of Four Observations)” value ([10]; rate 20, 2 weeks after application) was 35%, the “Percent (%) Crop Injury (Mean Value of Four Observations)” value [10, 29] was 25% and the “Percent (%) Crop Injury (Mean Value)” value [11, 31] was 6.7%. For the same compound, the “Percent (%) Crop Injury (Mean Value)” value [11, 21] was 6.7%, the “Percent (%) Crop Injury (Mean Value)” value [11, 23] was 13.3% and the “Percent (%) Crop Injury (Mean Value)” value [11, 24] was 11.7%. The “Percent (%) Crop Injury (Mean Value)” value [11, 26] was 15%, the “Percent (%) Crop Injury (Mean Value)” value [11, 27] was 8.3% and the “Percent (%) Crop Injury (Mean Value)” value [11, 29] was 22.3%. For the same compound, the “Percent (%) Crop Injury (Mean Value)” value [11, 30] was 6.7%, the “Percent (%) Visual Control POLCO” value [12, 14] was 5% and the “Percent (%) Visual Control POLCO” value [12, 15] was 22.5%. For the same compound, the “Percent (%) Visual Control POLCO” value [12, 16] was 60%, the “Percent (%) Visual Control POLCO” value [12, 17] was 20% and the “Percent (%) Visual Control POLCO” value [12, 18] was 35%. For the same compound, the “Percent (%) Crop Injury (Mean Value)” value [13, 21] was 7.5%, the “Percent (%) Crop Injury (Mean Value)” value [13, 23] was 9.2% and the “Percent (%) Crop Injury (Mean Value)” value [13, 24] was 7.5%. The “Percent (%) Crop Injury (Mean Value)” value [13, 26] was 8.8%, the “Percent (%) Crop Injury (Mean Value)” value [13, 27] was 0% and the “Percent (%) Crop Injury (Mean Value)” value [13, 29] was 11.3%. For the same compound, the “Percent (%) Crop Injury (Mean Value)” value [4, 19] was 2.5%, the “Percent (%) Crop Injury (Mean Value)” value [4, 20] was 2.5% and the “Percent (%) Crop Injury (Mean Value)” value [4, 22] was 5%. The “Percent (%) Crop Injury (Mean Value)” value [4, 23] was 1.3%, the “Percent (%) Crop Injury (Mean Value)” value [4, 25] was 7.5% and the “Percent (%) Crop Injury (Mean Value)” value [4, 26] was 7.5%. The “Percent (%) Crop Injury (Mean Value)” value [4, 29] was 7.5%, the “Percent (%) Crop Injury (Mean Value)” value [5, 19] was 6.3% and the “Percent (%) Crop Injury (Mean Value)” value [5, 20] was 3.8%. The “Percent (%) Crop Injury (Mean Value)” value [5, 22] was 10%, the “Percent (%) Crop Injury (Mean Value)” value [5, 23] was 3.3% and the “Percent (%) Crop Injury (Mean Value)” value [5, 25] was 15%. The “Percent (%) Crop Injury (Mean Value)” value [5, 26] was 7.5%, the “Percent (%) Crop Injury (Mean Value)” value [5, 28] was 27.5% and the “Percent (%) Crop Injury (Mean Value)” value [5, 29] was 15%.
